Results taken from patent US20250282799A1, “SUBSTITUTED PYRIDO[4,3-d]PYRIMIDINES AS KRAS MODULATORS” (Alterome Therapeutics, Inc., priority 2023, published 2025).

The compounds below were run on KRAS G12V dependent lung adenocarcinoma cell line, NCI-H441 (assay: Cellular pERK (Thr202/Tyr204) FRET/HTRF assay). Details: Homo sapiens, NCI-H441, cellular pERK (Thr202/Tyr204) HTRF, NCI-H441 cells.
Format: cell-based
Method in brief: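 NCI-H441, overnight plating → cpd 1 hr, 37 °C/5% CO2; DMSO neg ctrl. Lyse (phosphatase inhibitors), add donor/acceptor Abs, RT incubation, HTRF read. IC50 by curve fit.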

IC50 [nM]	SMILES
500 to 10000	[2H]C([2H])(Oc1nc(N2CCOC[C@@H]3C(F)[C@@H]32)c2cc(F)c(-c3cc(N)cc(C)c3C(F)(F)F)c(F)c2n1)[C@@]12CCCN1C[C@H](F)C2 (stereo in doubt) [Example 170, 3-(6,8-difluoro-4-((1R,7R,8R)-8-fluoro-5-oxa-2-azabicyclo[5.1.0]octan-2-yl)-2-(((2R,7aS)-2-fluorotetrahydro-1H-pyrrolizin-7a(5H)-yl)methoxy-d2)quinazolin-7-yl)-5-methyl-4-(trifluoromethyl)aniline]
500 to 10000	[2H]C([2H])(Oc1nc(N2CCOC[C@H]3[C@H](F)[C@H]32)c2cc(C(F)(F)F)c(-c3cc(N)cc4ccc(F)c(C#C)c34)c(F)c2n1)[C@@]12CCCN1C[C@H](F)C2 [Example 328, 5-ethynyl-6-fluoro-4-(8-fluoro-4-((1S,7S,8S)-8-fluoro-5-oxa-2-azabicyclo[5.1.0]octan-2-yl)-2-(((2R,7aS)-2-fluorotetrahydro-1H-pyrrolizin-7a(5H)-yl)methoxy-d2)-6-(trifluoromethyl)quinazolin-7-yl)naphthalen-2-amine]
500 to 10000	[2H]C([2H])(Oc1nc(N2CCOC[C@@H]3[C@@H](Cl)[C@@H]32)c2cnc(-c3cc(N)cc4ccc(Cl)c(C#C)c34)c(F)c2n1)[C@@]12CCCN1[C@H](C)[C@H](F)C2 [Example 345, 6-chloro-4-(4-((1R,7R,8R)-8-chloro-5-oxa-2-azabicyclo[5.1.0]octan-2-yl)-8-fluoro-2-(((2R,3R,7aS)-2-fluoro-3-methyltetrahydro-1H-pyrrolizin-7a(5H)-yl)methoxy-d2)pyrido[4,3-d]pyrimidin-7-yl)-5-ethynylnaphthalen-2-amine]
< 50	C#Cc1c(F)ccc2cc(N)cc(-c3ncc4c(N5CCOC[C@H]6[C@H](F)[C@H]65)nc(OC[C@]56C[C@@]7(C[C@@H]7F)CN5CCC65CC5)nc4c3F)c12 (single isomer, unassigned) [Example 234]
< 50	C#Cc1c(F)ccc2cc(N)cc(-c3ncc4c(N5CCOC[C@H]6[C@H](F)[C@H]65)nc(OC[C@@]56CCCN5C/C(=C\F)C6)nc4c3C)c12 [Example 427, 5-ethynyl-6-fluoro-4-(4-((1S,7S,8S)-8-fluoro-5-oxa-2-azabicyclo[5.1.0]octan-2-yl)-2-(((S,Z)-2-(fluoromethylene)tetrahydro-1H-pyrrolizin-7a(5H)-yl)methoxy)-8-methylpyrido[4,3-d]pyrimidin-7-yl)naphthalen-2-amine]
50 to 500	[2H]C([2H])(Oc1nc(N2CCOC[C@H]3[C@H](F)[C@H]32)c2cnc(-c3cccc4ccc(C(F)(F)F)c(C#C)c34)c(F)c2n1)[C@@]12CCCN1C[C@H](F)C2 [Example 332, (1S,7S,8S)-2-(7-(8-ethynyl-7-(trifluoromethyl)naphthalen-1-yl)-8-fluoro-2-(((2R,7aS)-2-fluorotetrahydro-1H-pyrrolizin-7a(5H)-yl)methoxy-d2)pyrido[4,3-d]pyrimidin-4-yl)-8-fluoro-5-oxa-2-azabicyclo[5.1.0]octane]
< 50	[2H]C([2H])(Oc1nc(N2CCOC[C@H]3[C@H](F)[C@H]32)c2cnc(-c3cncc4ccc(F)c(C#C)c34)c(F)c2n1)[C@@]12CCCN1C[C@H](F)C2 [Example 114, (1S,7S,8S)-2-(7-(5-Ethynyl-6-fluoroisoquinolin-4-yl)-8-fluoro-2-(((2R,7aS)-2-fluorotetrahydro-1H-pyrrolizin-7a(5H)-yl)methoxy-d2)pyrido[4,3-d]pyrimidin-4-yl)-8-fluoro-5-oxa-2-azabicyclo[5.1.0]octane]
< 50	[2H]C([2H])(F)Oc1c(F)c(F)cc2cc(N)cc(-c3ncc4c(N5CCOC[C@H]6[C@H](F)[C@H]65)nc(OC[C@@]56CCCN5C/C(=C\F)C6)nc4c3F)c12 [Example 162, 6,7-Difluoro-4-(8-fluoro-4-((1S,7S,8S)-8-fluoro-5-oxa-2-azabicyclo[5.1.0]octan-2-yl)-2-(((S,Z)-2-(fluoromethylene)tetrahydro-1H-pyrrolizin-7a(5H)-yl)methoxy)pyrido[4,3-d]pyrimidin-7-yl)-5-(fluoromethoxy-d2)naphthalen-2-amine]
< 50	[2H]C([2H])(Oc1nc(N2CCOC[C@H]3[C@H](F)[C@H]32)c2cnc(-c3cc(N)cc4ccc(F)c(C#C)c34)c(F)c2n1)[C@@]12CCCN1[C@H](C)[C@H](F)C2 [Example 333, 5-Ethynyl-6-fluoro-4-(8-fluoro-2-(((2R,3R,7aS)-2-fluoro-3-methyltetrahydro-1H-pyrrolizin-7a(5H)-yl)methoxy-d2)-4-((1S,7S,8S)-8-fluoro-5-oxa-2-azabicyclo[5.1.0]octan-2-yl)pyrido[4,3-d]pyrimidin-7-yl)naphthalen-2-amine]
< 50	[2H]C([2H])(F)Oc1c(F)ccc2cc(N)cc(-c3ncc4c(N5CCOC[C@H]6[C@H](F)[C@H]65)nc(OC[C@]56C/C(=C\F)CN5CCC65CC5)nc4c3F)c12 [Example 388, 6-fluoro-4-(8-fluoro-4-((1S,7S,8S)-8-fluoro-5-oxa-2-azabicyclo[5.1.0]octan-2-yl)-2-(((R,E)-6′-(fluoromethylene)tetrahydrospiro[cyclopropane-1,1′-pyrrolizin]-7a′(5′H)-yl)methoxy)pyrido[4,3-d]pyrimidin-7-yl)-5-(fluoromethoxy-d2)naphthalen-2-amine]
500 to 10000	Nc1cc(Cl)c(C(F)(F)F)c(-c2ncc3c(N4CCCC[C@@H]5[C@@H](F)[C@@H]54)nc(OC[C@@]45CCCN4C/C(=C\F)C5)nc3c2F)c1 [Example 374, 3-chloro-5-(8-fluoro-4-((1R,7S,8R)-8-fluoro-2-azabicyclo[5.1.0]octan-2-yl)-2-(((S,Z)-2-(fluoromethylene)tetrahydro-1H-pyrrolizin-7a(5H)-yl)methoxy)pyrido[4,3-d]pyrimidin-7-yl)-4-(trifluoromethyl)aniline]
< 50	C#Cc1c(F)ccc2cccc(-c3ncc4c(N5CCOC[C@H]6[C@H](F)[C@H]65)nc(OC[C@@]56CCCN5CC(=C(F)F)C6)nc4c3F)c12 [Example 102, (1S,7S,8S)-2-(2-(((S)-2-(Difluoromethylene)tetrahydro-1H-pyrrolizin-7a(5H)-yl)methoxy)-7-(8-ethynyl-7-fluoronaphthalen-1-yl)-8-fluoropyrido[4,3-d]pyrimidin-4-yl)-8-fluoro-5-oxa-2-azabicyclo[5.1.0]octane]

Same assay, conditions: Homo sapiens, NCI-H441, cellular pERK HTRF, NCI-H441 (KRAS G12V) cells

IC50 [nM]	SMILES
< 50	C#Cc1c(F)ccc2cc(N)cc(-c3ncc4c(N5CCOCC6C(Cl)C65)nc(OC[C@]56CC(=C)CN5CCC65CC5)nc4c3C)c12 (stereo partly drawn) [Example 444, 4-(4-(8-chloro-5-oxa-2-azabicyclo[5.1.0]octan-2-yl)-8-methyl-2-(((R)-6′-methylenetetrahydrospiro[cyclopropane-1,1′-pyrrolizin]-7a′(5′H)-yl)methoxy)pyrido[4,3-d]pyrimidin-7-yl)-5-ethynyl-6-fluoronaphthalen-2-amine]
< 50	[2H]C([2H])(Oc1nc(N2CCOC[C@H]3[C@H](F)[C@H]32)c2cnc(-c3cc(O)cc4ccc(F)c(C#C)c34)c(C)c2n1)[C@@]12CCCN1CC(=C)C2 [Example 446, 5-Ethynyl-6-fluoro-4-(4-((1S,7S,8S)-8-fluoro-5-oxa-2-azabicyclo[5.1.0]octan-2-yl)-8-methyl-2-(((S)-2-methylenetetrahydro-1H-pyrrolizin-7a(5H)-yl)methoxy-d2)pyrido[4,3-d]pyrimidin-7-yl)naphthalen-2-ol]

Same assay, conditions: Homo sapiens, NCI-H441, pERK HTRF, NCI-H441 cells (KRAS G12V)

IC50 [nM]	SMILES
< 50	[2H]C([2H])(Oc1nc(N2CCCC[C@H]3[C@H](F)[C@H]32)c2cnc(-c3cc(N)cc4c(F)c(F)c(F)c(C#C)c34)c(F)c2n1)[C@@]12CCCN1C[C@H](F)C2 [Example 70, 5-Ethynyl-6,7,8-trifluoro-4-(8-fluoro-4-((1S,7R,8S)-8-fluoro-2-azabicyclo[5.1.0]octan-2-yl)-2-(((2R,7aS)-2-fluorotetrahydro-1H-pyrrolizin-7a(5H)-yl)methoxy-d2)pyrido[4,3-d]pyrimidin-7-yl)naphthalen-2-amine]
< 50	[2H]C([2H])(Oc1nc(N2CCOC[C@H]3[C@H](F)[C@H]32)c2cnc(-c3cccc4ccc(F)c(C#C)c34)c(F)c2n1)[C@@]12CCCN1C[C@H](F)C2 [Example 45, (1S,7S,8S)-2-(7-(8-Ethynyl-7-fluoronaphthalen-1-yl)-8-fluoro-2-(((2R,7aS)-2-fluorotetrahydro-1H-pyrrolizin-7a(5H)-yl)methoxy-d2)pyrido[4,3-d]pyrimidin-4-yl)-8-fluoro-5-oxa-2-azabicyclo[5.1.0]octane]
500 to 10000	[2H]C([2H])(Oc1nc(N2CCOC[C@H]3[C@@H]2C3(F)F)c2cnc(-c3cc(N)cc4cc(F)c(F)c(C#C)c34)c(F)c2n1)[C@@]12CCCN1C[C@H](F)C2 [Example 20, 4-(4-((1R,7R)-8,8-Difluoro-5-oxa-2-azabicyclo[5.1.0]octan-2-yl)-8-fluoro-2-(((2R,7aS)-2-fluorotetrahydro-1H-pyrrolizin-7a(5H)-yl)methoxy-d2)pyrido[4,3-d]pyrimidin-7-yl)-5-ethynyl-6,7-difluoronaphthalen-2-amine]

Same assay, conditions: cellular pERK (Thr202/Tyr204) HTRF, NCI-H441 cells

IC50 [nM]	SMILES
< 50	[2H]C([2H])(Oc1nc(N2CCOC[C@H]3[C@H](F)[C@H]32)c2cc(F)c(-c3ccc(F)c4sc(N)c(C#N)c34)c(F)c2n1)[C@@]12CCCN1C[C@H](F)C2 (atropisomer, axis not shown; (aS)) [Example 357, 2-amino-4-((S)-6,8-difluoro-4-((1S,7S,8S)-8-fluoro-5-oxa-2-azabicyclo[5.1.0]octan-2-yl)-2-(((2R,7aS)-2-fluorotetrahydro-1H-pyrrolizin-7a(5H)-yl)methoxy-d2)quinazolin-7-yl)-7-fluorobenzo[b]thiophene-3-carbonitrile]
